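Method: 48-hour compound exposure of cells in 96-well plates, five concentrations, linear interpolation of endpoints. The concentration for 50% growth inhibition is given as GI50.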 Active and inactive are the calls of the source. No stated cut-off is given here; in the data, active = GI50 up to about 1.1 µM and inactive = higher.
How the values were obtained:
Test in all cases: inhibition of tumour cell growth, NCI panel, 48 h
MDA-MB-435 = test system: MDA-MB-435
TK-10 = test system: TK-10
OVCAR-3 = test system: OVCAR-3
SK-MEL-28 = test system: SK-MEL-28
HT-29 = test system: HT-29
OVCAR-4 = test system: OVCAR-4
SN12C = test system: SN12C
ACHN = test system: ACHN
NCI-H23 = test system: NCI-H23
NCI-H522 = test system: NCI-H522
CAKI-1 = test system: CAKI-1
Hs-578T = test system: Hs-578T
UACC-62 = test system: UACC-62
COLO 205 = test system: COLO 205
LOX IMVI = test system: LOX IMVI
UACC-257 = test system: UACC-257
T47D = test system: T47D
SNB-19 = test system: SNB-19
M14 = test system: M14
HCT-15 = test system: HCT-15
RXF 393 = test system: RXF 393
SW-620 = test system: SW-620
Malme-3M = test system: Malme-3M
IGROV-1 = test system: IGROV-1
786-0 = test system: 786-0
SK-MEL-5 = test system: SK-MEL-5
UO-31 = test system: UO-31
KM12 = test system: KM12
MCF7 = test system: MCF7
A498 = test system: A498
SF-268 = test system: SF-268
NCI-H460 = test system: NCI-H460
BT-549 = test system: BT-549
K562 = test system: K562
MDA-N = test system: MDA-N
NCI-H226 = test system: NCI-H226
PC-3 = test system: PC-3
CCRF-CEM = test system: CCRF-CEM
MOLT-4 = test system: MOLT-4
NCI/ADR-RES = test system: NCI/ADR-RES
HOP-62 = test system: HOP-62
A549 = test system: A549
RPMI-8226 = test system: RPMI-8226
DU-145 = test system: DU-145
OVCAR-8 = test system: OVCAR-8
SK-MEL-2 = test system: SK-MEL-2
HOP-92 = test system: HOP-92
HL-60 = test system: HL-60
HCT-116 = test system: HCT-116
MDA-MB-231 = test system: MDA-MB-231
EKVX = test system: EKVX
U-251 = test system: U-251
SF-295 = test system: SF-295
OVCAR-5 = test system: OVCAR-5
SNB-75 = test system: SNB-75
SF-539 = test system: SF-539
SK-OV-3 = test system: SK-OV-3

## CCc1n[nH]c(=O)n1N=C(c1ccccc1)c1ccccc1
MDA-MB-435
  GI50: > 100 µM (inactive)
TK-10
  GI50: > 100 µM (inactive)
OVCAR-3
  GI50: > 100 µM (inactive)
SK-MEL-28
  GI50: > 100 µM (inactive)
HT-29
  GI50: > 100 µM (inactive)
OVCAR-4
  GI50: > 100 µM (inactive)
SN12C
  GI50: > 100 µM (inactive)
ACHN
  GI50: > 100 µM (inactive)
NCI-H23
  GI50: > 100 µM (inactive)
NCI-H522
  GI50: > 100 µM (inactive)
CAKI-1
  GI50: > 100 µM (inactive)
Hs-578T
  GI50: > 100 µM (inactive)
UACC-62
  GI50: > 100 µM (inactive)
COLO 205
  GI50: > 100 µM (inactive)
LOX IMVI
  GI50: > 100 µM (inactive)
UACC-257
  GI50: > 100 µM (inactive)
T47D
  GI50: > 100 µM (inactive)
SNB-19
  GI50: > 100 µM (inactive)
M14
  GI50: > 100 µM (inactive)
HCT-15
  GI50: > 100 µM
RXF 393
  GI50: > 100 µM (inactive)
SW-620
  GI50: > 100 µM (inactive)
Malme-3M
  GI50: > 100 µM (inactive)
IGROV-1
  GI50: > 100 µM (inactive)
786-0
  GI50: > 100 µM (inactive)
SK-MEL-5
  GI50: > 100 µM (inactive)
UO-31
  GI50: > 100 µM (inactive)
KM12
  GI50: > 100 µM (inactive)
MCF7
  GI50: > 100 µM (inactive)
A498
  GI50: > 100 µM (inactive)
SF-268
  GI50: > 100 µM (inactive)
NCI-H460
  GI50: > 100 µM (inactive)
BT-549
  GI50: > 100 µM (inactive)
K562
  GI50: > 100 µM (inactive)
MDA-N
  GI50: > 100 µM (inactive)
NCI-H226
  GI50: > 100 µM (inactive)
PC-3
  GI50: > 100 µM (inactive)
CCRF-CEM
  GI50: > 100 µM (inactive)
MOLT-4
  GI50: > 100 µM (inactive)
NCI/ADR-RES
  GI50: > 100 µM (inactive)
HOP-62
  GI50: > 100 µM (inactive)
A549
  GI50: > 100 µM (inactive)
RPMI-8226
  GI50: > 100 µM (inactive)
DU-145
  GI50: > 100 µM (inactive)
OVCAR-8
  GI50: > 100 µM (inactive)
SK-MEL-2
  GI50: > 100 µM (inactive)
HOP-92
  GI50: > 100 µM (inactive)
HL-60
  GI50: > 100 µM (inactive)
HCT-116
  GI50: > 100 µM (inactive)
MDA-MB-231
  GI50: > 100 µM (inactive)
EKVX
  GI50: 32 µM (inactive)
U-251
  GI50: > 100 µM (inactive)
SF-295
  GI50: > 100 µM (inactive)
OVCAR-5
  GI50: 58.1 µM (inactive)

## O=C(CN1c2ccccc2Sc2ccccc21)N1CCNCC1
MDA-MB-435
  GI50: > 100 µM (inactive)
TK-10
  GI50: > 100 µM (inactive)
OVCAR-3
  GI50: > 100 µM (inactive)
SK-MEL-28
  GI50: > 100 µM (inactive)
HT-29
  GI50: > 100 µM (inactive)
OVCAR-4
  GI50: > 100 µM (inactive)
SN12C
  GI50: > 100 µM (inactive)
SNB-75
  GI50: 30.9 µM (inactive)
ACHN
  GI50: > 100 µM (inactive)
NCI-H23
  GI50: > 100 µM (inactive)
Hs-578T
  GI50: > 100 µM (inactive)
UACC-62
  GI50: > 100 µM (inactive)
COLO 205
  GI50: > 100 µM (inactive)
LOX IMVI
  GI50: > 100 µM (inactive)
UACC-257
  GI50: > 100 µM (inactive)
T47D
  GI50: 71.9 µM (inactive)
SNB-19
  GI50: > 100 µM (inactive)
M14
  GI50: > 100 µM (inactive)
HCT-15
  GI50: > 100 µM
RXF 393
  GI50: 97.5 µM (inactive)
SW-620
  GI50: > 100 µM (inactive)
Malme-3M
  GI50: > 100 µM (inactive)
IGROV-1
  GI50: 71.4 µM (inactive)
786-0
  GI50: > 100 µM (inactive)
SF-539
  GI50: > 100 µM (inactive)
SK-MEL-5
  GI50: 40.3 µM (inactive)
UO-31
  GI50: 95.5 µM (inactive)
KM12
  GI50: 64.4 µM (inactive)
MCF7
  GI50: > 100 µM (inactive)
A498
  GI50: 34.6 µM (inactive)
SF-268
  GI50: > 100 µM (inactive)
NCI-H460
  GI50: > 100 µM (inactive)
BT-549
  GI50: > 100 µM (inactive)
K562
  GI50: > 100 µM (inactive)
MDA-N
  GI50: > 100 µM (inactive)
NCI-H226
  GI50: 78.7 µM (inactive)
PC-3
  GI50: 73.1 µM (inactive)
CCRF-CEM
  GI50: 99.8 µM (inactive)
MOLT-4
  GI50: 64.7 µM (inactive)
NCI/ADR-RES
  GI50: > 100 µM (inactive)
HOP-62
  GI50: > 100 µM (inactive)
A549
  GI50: > 100 µM (inactive)
RPMI-8226
  GI50: > 100 µM (inactive)
DU-145
  GI50: > 100 µM (inactive)
OVCAR-8
  GI50: > 100 µM (inactive)
SK-MEL-2
  GI50: > 100 µM (inactive)
HOP-92
  GI50: 29.5 µM (inactive)
HL-60
  GI50: > 100 µM (inactive)
SK-OV-3
  GI50: > 100 µM (inactive)
HCT-116
  GI50: > 100 µM (inactive)
MDA-MB-231
  GI50: > 100 µM (inactive)
EKVX
  GI50: > 100 µM (inactive)
U-251
  GI50: 56.1 µM (inactive)
SF-295
  GI50: > 100 µM (inactive)
OVCAR-5
  GI50: > 100 µM (inactive)
